Assay results: US10656162B2, “Use of glu-tubulin as a biomarker of drug response to furazanobenzimidazoles” (Basilea Pharmaceutica AG, priority 2011, dated 2020)

How the values were obtained:
[1] = system: A549 BAL27862-resistant cell line variant; assay: Crystal Violet assay, BAL27862-resistant A549 versus parental line; format: cell-based, human
Description: (§1) BAL27862-resistant sublines of human non-small cell lung cancer (H460 ATCC reference HTB-177; A549 ATCC reference CCL-185), ovarian cancer (SKOV3 ATCC reference HTB-77) lines were generated by long-term selection in complete cell culture medium (RPMI-1640 containing 10% FCS; Sigma-Aldrich) by stepwise increasing concentrations of BAL27862. […] The resistant sublines were expanded at the highest tolerated BAL27862 concentration and subsequently frozen and stored in liquid nitrogen.
(§2) After medium was removed, cells were fixed and stained by adding 50 μl Crystal Violet Staining (0.2% Crystal Violet in 50% Methanol) per well. Plates were incubated for 1 hour at room temperature. Subsequently the stain was decanted and plates were washed 4 times with double-distilled water. Plates were air-dried for several hours. Stain was dissolved by adding 100 μl buffer (0.1 M Tris pH 7.5, 0.2% SDS, 20% Ethanol) per well and shaking the plates. Absorbance at 590 nm was measured using a SpectraMax M2e plate reader (Molecular Devices). Anti-proliferative IC50 values were calculated from concentration response curves using GraphPad Prism software. Resistance factors were calculated as a ratio of BAL27862 IC50 in the resistant line variant versus the IC50 in the parental line.

[2] = system: CXF 1103 patient-derived colorectal tumour; assay: Colony outgrowth assay, CXF 1103; format: cell-based, human
Procedure: (§3) Single cell suspensions of patient-derived tumour xenografts (maintained in nude mice) were prepared. For colony outgrowth assays, cells were plated in soft agar in 24-well plates according to the assay introduced by Hamburger & Salmon (Primary bioassay of human tumour stem cells, Science, 1977.197:461-463). 2×10^4-6×10^4 cells in 0.2 mL medium containing 0.4% agar were plated out on a bottom layer of 0.75% agar. Test compounds were applied in 0.2 mL culture medium. Every 24-well plate contained untreated controls and samples in triplicates. Cultures were incubated at 37° C. and 7.5% CO2 for 5-28 days. 24 hours prior to analysis, vital colonies were stained with a solution of metabolisable tetrazolium salt (Alley M C et al, Life Sci. 1982, 31:3071-3078) and were counted with an automatic image analysis system (Omnicon 3600, Biosys GmbH).
(§4) Relative drug effects were expressed by the ratio of the mean number of colonies in the treated wells and the control wells. IC70-values were determined by plotting compound concentrations versus relative colony counts.

[3] = system: LXFE 211 Patient-derived lung tumour; assay: Colony outgrowth assay, LXFE 211; format: cell-based, human; parameters: key to Response to compound (BAL27862, paclitaxel, vinblastine): Sensitive: BAL27862-sensitive tumour cells have IC70 values in the low nanomolar range; Resistant: BAL27862-resistant tumour cells are defined by IC70 values >600 nanomolar
Procedure: as §3, §4

[4] = system: MEXF 1341 patient-derived melanoma; assay: Colony outgrowth assay, MEXF 1341; format: cell-based, human; parameters: key to Response to compound (BAL27862, paclitaxel, vinblastine): Sensitive: BAL27862-sensitive tumour cells have IC70 values in the low nanomolar range; Resistant: BAL27862-resistant tumour cells are defined by IC70 values >600 nanomolar
Procedure: as §3, §4

[5] = system: H460 BAL27862-resistant cell line variant; assay: Crystal Violet assay, BAL27862-resistant H460 versus parental line; format: cell-based, human
Description: as §1, §2

[6] = system: P-gp pump over-expressing models; assay: Models over-expressing the P-gp pump; format: cell-based; conditions: models tested in vitro; also human mammary tumour xenografts
[7] = system: SKBR3 breast cancer cells; assay: Immunofluorescent staining of microtubules, SKBR3; format: cell-based, human; conditions: SKBR3, 24 hours, 50 nM BAL27862
Procedure: (§5) A549 human non-small cell lung cancer (NSCLC, ATCC reference number CCL-185) cells, HeLa cervical cancer cells (ATCC reference number CCL-2) and SKBR3 breast carcinoma cells (ATCC reference number HTB-30) were seeded at densities of 50% on round microscope coverslips and cultured for 24 hours in RPMI-1640 containing 10% FCS (also referred to as FBS) at 37° C., 5% CO2. Compounds to be tested were dissolved in DMSO. The cell culture medium was replaced with medium containing the diluted compound(s) (paclitaxel, vinblastine, colchicine and nocodazole were purchased from Sigma-Aldrich) or vehicle. After treatment for the times indicated in the Brief Description of the Figures, coverslips were washed and cells were fixed in methanol/acetone (1:1) for 5 minutes at room temperature and subsequently incubated in blocking buffer (0.5% BSA and 0.1% TX-100 in PBS) for 30 minutes at room temperature. Specimens were then incubated with anti-alpha-tubulin (Sigma, 1:2000) for 1 hour at room temperature in blocking buffer. After several washing steps cells were incubated with AlexaFluor-488 goat-anti-mouse IgG (Molecular Probes, 1:3000) for 1 hour at room temperature followed by several washing steps with blocking buffer. […]

[8] = system: CXF 243 patient-derived colorectal tumour; assay: Colony outgrowth assay, CXF 243; format: cell-based, human; conditions: CXF 243, 70% growth inhibition versus controls
Procedure: as §3, §4

[9] = system: MEXF 276 patient-derived melanoma; assay: Colony outgrowth assay, MEXF 276; format: cell-based, human
Procedure: as §3, §4

[10] = system: HeLa cervical cancer cells; assay: Immunofluorescent staining of microtubules, HeLa; format: cell-based, human; conditions: 24 hours, 50 nM BAL27862
Procedure: as §5

SKOV3 resistant 2 = assay: Crystal Violet assay, SKOV3 resistant 2 versus parental line; format: cell-based, human
Description: as §1, §2

A549 NSCLC cells = assay: Immunofluorescent staining of microtubules, A549; format: cell-based, human; conditions: for Microtubule phenotype of mitotic or G2/M arrested cells: A549, 24 hours, 50 nM BAL27862, 80 nM Compound B, 20 nM Compound C, anti-alpha-tubulin staining
Procedure: A549 human non-small cell lung cancer (NSCLC, ATCC reference number CCL-185) cells, HeLa cervical cancer cells (ATCC reference number CCL-2) and SKBR3 breast carcinoma cells (ATCC reference number HTB-30) were seeded at densities of 50% on round microscope coverslips and cultured for 24 hours in RPMI-1640 containing 10% FCS (also referred to as FBS) at 37° C., 5% CO2. Compounds to be tested were dissolved in DMSO. The cell culture medium was replaced with medium containing the diluted compound(s) (paclitaxel, vinblastine, colchicine and nocodazole were purchased from Sigma-Aldrich) or vehicle. After treatment for the times indicated in the Brief Description of the Figures, coverslips were washed and cells were fixed in methanol/acetone (1:1) for 5 minutes at room temperature and subsequently incubated in blocking buffer (0.5% BSA and 0.1% TX-100 in PBS) for 30 minutes at room temperature. Specimens were then incubated with anti-alpha-tubulin (Sigma, 1:2000) for 1 hour at room temperature in blocking buffer. After several washing steps cells were incubated with AlexaFluor-488 goat-anti-mouse IgG (Molecular Probes, 1:3000) for 1 hour at room temperature followed by several washing steps with blocking buffer. Specimens were then mounted with ProLong Gold antifade (Molecular Probes, sealed with nail polish and examined with a Leica immunofluorescence microscope. Images were captured with a cooled CCD-camera and processed by ImageJ software.

[11] = system: LXFE 397 Patient-derived lung tumour; assay: Colony outgrowth assay, LXFE 397; format: cell-based, human
Procedure: as §3, §4

[12] = system: experimental, solid tumour xenograft models; assay: Solid tumour xenograft models; conditions: in vivo
SKOV3 resistant 1 = assay: Crystal Violet assay, SKOV3 resistant 1 versus parental line; format: cell-based, human
Description: as §1, §2

N#CCCNc1nonc1-c1nc2ccccc2n1CC(=O)c1ccc(N)cc1 [BAL27862, 3-(4-{1-[2-(4-Amino-phenyl)-2-oxo-ethyl]-1H-benzoimidazol-2-yl}-furazan-3-ylamino)-propionitrile]
Resistance factors (ratio of IC50 BAL27862-resistant cell line variant and IC50 parental cell line) ([1]; A549, 72 hours, Crystal Violet): 3.0 | BAL27862 resistance factors versus parental lines ([1]; A549, based on IC50 determinations): 3.0 fold | IC70 BAL27862 ([2]; CXF 1103, 70% growth inhibition versus controls): 22 nM | Response to compound (BAL27862, paclitaxel, vinblastine) ([2]; CXF 1103, colorectal cancer, ex vivo colony outgrowth): Sensitive | IC70 BAL27862 ([3]; LXFE 211, 70% growth inhibition versus controls): 21 nM | Response to compound (BAL27862, paclitaxel, vinblastine) ([3]; LXFE 211, lung cancer, ex vivo colony outgrowth): Sensitive | IC70 BAL27862 ([4]; MEXF 1341, 70% growth inhibition versus controls): 25 nM | Response to compound (BAL27862, paclitaxel, vinblastine) ([4]; MEXF 1341, melanoma, ex vivo colony outgrowth): Sensitive | Resistance factors (ratio of IC50 BAL27862-resistant cell line variant and IC50 parental cell line) ([5]; H460, 72 hours, Crystal Violet): 5.3 | BAL27862 resistance factors versus parental lines ([5]; H460, based on IC50 determinations): 5.3 fold | Activity with over-expression of the P-gp pump [6]: not affected | Microtubule phenotype of mitotic or G2/M arrested cells [7]: highly reproducible and distinct microtubule phenotype | IC70 BAL27862 [8]: 696 nM | IC70 BAL27862 ([9]; MEXF 276, 70% growth inhibition versus controls): >3500 nM | Response to compound (BAL27862, paclitaxel, vinblastine) ([9]; MEXF 276, melanoma, ex vivo colony outgrowth): Resistant (BAL27862-resistant tumour cells are defined by IC70 values >600 nanomolar) | Microtubule phenotype of mitotic or G2/M arrested cells [10]: highly reproducible and distinct microtubule phenotype | Resistance factors (ratio of IC50 BAL27862-resistant cell line variant and IC50 parental cell line) (SKOV3 resistant 2; SKOV3 resistant 2, 72 hours, Crystal Violet): 11.6 | BAL27862 resistance factors versus parental lines (SKOV3 resistant 2; SKOV3 resistant 2, based on IC50 determinations): 11.6 fold | Microtubule phenotype on combination treatment (A549 NSCLC cells; A549, 24 hours vinblastine, colchicine, paclitaxel or nocodazole with the final 4 hours including BAL27862): disruption of the microtubule structures | Microtubule phenotype of mitotic or G2/M arrested cells (A549 NSCLC cells): multiple dot-like structures are visible | Microtubule phenotype of mitotic or G2/M arrested cells (A549 NSCLC cells; listed as compound A): highly reproducible and distinct microtubule phenotype | IC70 BAL27862 ([11]; LXFE 397, 70% growth inhibition versus controls): >3500 nM | Response to compound (BAL27862, paclitaxel, vinblastine) ([11]; LXFE 397, lung cancer, ex vivo colony outgrowth): Resistant (BAL27862-resistant tumour cells are defined by IC70 values >600 nanomolar) | Activity in tumour xenograft models [12]: activity across a broad panel of experimental, solid tumour xenograft models | Resistance factors (ratio of IC50 BAL27862-resistant cell line variant and IC50 parental cell line) (SKOV3 resistant 1; SKOV3 resistant 1, 72 hours, Crystal Violet): 7.6 | BAL27862 resistance factors versus parental lines (SKOV3 resistant 1; SKOV3 resistant 1, based on IC50 determinations): 7.6 fold
